{
  "source": "patent US10214507B2",
  "about": "“Carbazole-containing amides, carbamates, and ureas as cryptochrome modulators” (Reset Therapeutics, Inc., priority 2014, dated 2019)",
  "data": [
    {"tested_on": "stable U20S reporter cells harboring Per2-dLuc", "assay": "Per2 assay for evaluating the potency of test compounds (circadian luciferase reporter)", "assay_type": "cell-based", "conditions": "amplitude of Per2-dLuc luminescence vs log concentration", "protocol": "Compounds were screened by using a high-throughput circadian assay system as previously described in Zhang, E. E. et al. Cell, 2009, 139, 199-210. In brief, stable U20S reporter cells harboring Per2-dLuc were plated at a density of 30,000 cells/well in Corning 96-well, solid white, flat bottom, TC-treated microplates (Corning®), and incubated for 48 hours at 37° C. in the presence of 5% CO2 in a medium of Dulbecco's Modified Eagle Medium (DMEM) supplemented with 10% fetal bovine serum (FBS) and penicillin (100 units/mL)-streptomycin (100 μg/mL). […] DMSO stocks are then serially diluted in DMSO, typically diluting 3-fold for each dilution step. Following the 48 h period, cell culture medium is removed from plated cells and cells are synchronized with 200 μL/well of complete cell culture medium (described above), supplemented with 5 μM forskolin (Tocris®) and 1 mM beetle luciferin (Promega®). Immediately following synchronization, 1 μL of compound dilution is added to each well. Plates are sealed, shaken briefly, and gene expression was monitored by measuring luminescence (Tecan® Infinite M200 or Tecan® Infinite M200 Pro) continuously for a minimum of 3 days at 35° C. Raw luminescence data (counts) are first analyzed using Multicycle™ software (Actimetrics, Inc.) to determine the amplitude (amp), period, and phase (phz) for each compound concentration. The period length for control wells (i.e. no compound, DMSO only) should be 26-30 h. Amp data are then plotted against the logarithm compound concentration (M) and analyzed by nonlinear regression analysis to determine the EC50.", "units": {"EC50": "nM"}, "values": [
      {"smiles": "O=C1CCCCN1CC(O)Cn1c2ccccc2c2ccccc21", "note": "(centres unmarked) [Compound 1, 1-(3-(9H-carbazol-9-yl)-2-hydroxypropyl)piperidin-2-one]", "EC50": 171},
      {"smiles": "CN1CCCN(CC(O)Cn2c3ccccc3c3ccccc32)C1=O", "note": "(centres unmarked) [Compound 2, 1-(3-(9H-carbazol-9-yl)-2-hydroxypropyl)-3-methyltetrahydropyrimidin-2(1H)-one]", "EC50": 736},
      {"smiles": "O=C1NCCCN1CC(O)Cn1c2ccccc2c2ccccc21", "note": "(centres unmarked) [Compound 3, 1-(3-(9H-carbazol-9-yl)-2-hydroxypropyl)tetrahydropyrimidin-2(1H)-one]", "EC50": 299},
      {"smiles": "O=C1CCCCN1CC(O)Cn1c2ccc(F)cc2c2cc(F)ccc21", "note": "(centres unmarked) [Compound 4, 1-(3-(3,6-difluoro-9H-carbazol-9-yl)-2-hydroxypropyl)piperidin-2-one]", "EC50": 192},
      {"smiles": "CC(O)(CN1CCCCC1=O)Cn1c2ccc(F)cc2c2cc(F)ccc21", "note": "(centres unmarked) [Compound 5, 1-(3-(3,6-difluoro-9H-carbazol-9-yl)-2-hydroxy-2-methylpropyl)piperidin-2-one]", "EC50": 536},
      {"smiles": "CN1CCCN(CC(O)Cn2c3ccc(F)cc3c3cc(F)ccc32)C1=O", "note": "(centres unmarked) [Compound 6, 1-(3-(3,6-difluoro-9H-carbazol-9-yl)-2-hydroxypropyl)-3-methyltetrahydropyrimidin-2(1H)-one]", "EC50": 719},
      {"smiles": "O=C1CCCN1CC(O)Cn1c2ccc(F)cc2c2cc(F)ccc21", "note": "(centres unmarked) [Compound 7, 1-(3-(3,6-difluoro-9H-carbazol-9-yl)-2-hydroxypropyl)pyrrolidin-2-one]", "EC50": 625},
      {"smiles": "CC(O)(CN1CCCC1=O)Cn1c2ccc(F)cc2c2cc(F)ccc21", "note": "(centres unmarked) [Compound 8, 1-(3-(3,6-difluoro-9H-carbazol-9-yl)-2-hydroxy-2-methylpropyl)pyrrolidin-2-one]", "EC50": 527},
      {"smiles": "CC(O)(CN1CCC(F)C1=O)Cn1c2ccc(F)cc2c2cc(F)ccc21", "note": "(centres unmarked) [Compound 10, 1-(3-(3,6-difluoro-9H-carbazol-9-yl)-2-hydroxy-2-methylpropyl)-3-fluoropyrrolidin-2-one]", "EC50": 487},
      {"smiles": "O=C1C(F)CCCN1CC(O)Cn1c2ccc(F)cc2c2cc(F)ccc21", "note": "(centres unmarked) [Compound 11, 1-(3-(3,6-difluoro-9H-carbazol-9-yl)-2-hydroxypropyl)-3-fluoropiperidin-2-one]", "EC50": 120},
      {"smiles": "CC(O)(CN1CCCC(F)C1=O)Cn1c2ccc(F)cc2c2cc(F)ccc21", "note": "(centres unmarked) [Compound 12, 1-(3-(3,6-difluoro-9H-carbazol-9-yl)-2-hydroxy-2-methylpropyl)-3-fluoropiperidin-2-one]", "EC50": 909},
      {"smiles": "O=C1N(CC(O)Cn2c3ccc(F)cc3c3cc(F)ccc32)CCCC1(F)F", "note": "(centres unmarked) [Compound 13, 1-(3-(3,6-difluoro-9H-carbazol-9-yl)-2-hydroxypropyl)-3,3-difluoropiperidin-2-one]", "EC50": 288},
      {"smiles": "CC(O)(CN1CCCC(F)(F)C1=O)Cn1c2ccc(F)cc2c2cc(F)ccc21", "note": "(centres unmarked) [Compound 14, 1-(3-(3,6-difluoro-9H-carbazol-9-yl)-2-hydroxy-2-methylpropyl)-3,3-difluoropiperidin-2-one]", "EC50": 541},
      {"smiles": "CC1(C)CCN(CC(O)Cn2c3ccc(F)cc3c3cc(F)ccc32)C1=O", "note": "(centres unmarked) [Compound 15, 1-(3-(3,6-difluoro-9H-carbazol-9-yl)-2-hydroxypropyl)-3,3-dimethylpyrrolidin-2-one]", "EC50": 164},
      {"smiles": "CC1(C)CCCN(CC(O)Cn2c3ccc(F)cc3c3cc(F)ccc32)C1=O", "note": "(centres unmarked) [Compound 16, 1-(3-(3,6-difluoro-9H-carbazol-9-yl)-2-hydroxypropyl)-3,3-dimethylpiperidin-2-one]", "EC50": 463},
      {"smiles": "CCC1CCN(CC(O)Cn2c3ccc(F)cc3c3cc(F)ccc32)C1=O", "note": "(centres unmarked) [Compound 17, 1-(3-(3,6-difluoro-9H-carbazol-9-yl)-2-hydroxypropyl)-3-ethylpyrrolidin-2-one]", "EC50": 417},
      {"smiles": "O=C1C(C2CCCC2)CCN1CC(O)Cn1c2ccc(F)cc2c2cc(F)ccc21", "note": "(centres unmarked) [Compound 18, 3-cyclopentyl-1-(3-(3,6-difluoro-9H-carbazol-9-yl)-2-hydroxypropyl)pyrrolidin-2-one]", "EC50": 338},
      {"smiles": "O=C1C(c2ccccc2)CCCN1CC(O)Cn1c2ccc(F)cc2c2cc(F)ccc21", "note": "(centres unmarked) [Compound 19, 1-(3-(3,6-difluoro-9H-carbazol-9-yl)-2-hydroxypropyl)-3-phenylpiperidin-2-one]", "EC50": 547},
      {"smiles": "O=C1C(C2CCCCC2)CCCN1CC(O)Cn1c2ccc(F)cc2c2cc(F)ccc21", "note": "(centres unmarked) [Compound 20, 3-cyclohexyl-1-(3-(3,6-difluoro-9H-carbazol-9-yl)-2-hydroxypropyl)piperidin-2-one]", "EC50": 379},
      {"smiles": "CC(O)(CN1CCCC(C2CCCCC2)C1=O)Cn1c2ccc(F)cc2c2cc(F)ccc21", "note": "(centres unmarked) [Compound 21, 3-cyclohexyl-1-(3-(3,6-difluoro-9H-carbazol-9-yl)-2-hydroxy-2-methylpropyl)piperidin-2-one]", "EC50": 1040},
      {"smiles": "CC(C)C1CCN(CC(O)Cn2c3ccc(F)cc3c3cc(F)ccc32)C1=O", "note": "(centres unmarked) [Compound 22, 1-(3-(3,6-difluoro-9H-carbazol-9-yl)-2-hydroxypropyl)-3-isopropylpyrrolidin-2-one]", "EC50": 261},
      {"smiles": "O=C1C(C2CCCC2)CCCN1CC(O)Cn1c2ccc(F)cc2c2cc(F)ccc21", "note": "(centres unmarked) [Compound 23, 3-cyclopentyl-1-(3-(3,6-difluoro-9H-carbazol-9-yl)-2-hydroxypropyl)piperidin-2-one]", "EC50": 399},
      {"smiles": "CCC1CCCN(CC(O)Cn2c3ccc(F)cc3c3cc(F)ccc32)C1=O", "note": "(centres unmarked) [Compound 24, 1-(3-(3,6-difluoro-9H-carbazol-9-yl)-2-hydroxypropyl)-3-ethylpiperidin-2-one]", "EC50": 332},
      {"smiles": "CC(C)C1CCCN(CC(O)Cn2c3ccc(F)cc3c3cc(F)ccc32)C1=O", "note": "(centres unmarked) [Compound 25, 1-(3-(3,6-difluoro-9H-carbazol-9-yl)-2-hydroxypropyl)-3-isopropylpiperidin-2-one]", "EC50": 79},
      {"smiles": "CC(C)C1CCCN(CC(C)(O)Cn2c3ccc(F)cc3c3cc(F)ccc32)C1=O", "note": "(centres unmarked) [Compound 26, 1-(3-(3,6-difluoro-9H-carbazol-9-yl)-2-hydroxy-2-methylpropyl)-3-isopropylpiperidin-2-one]", "EC50": 1050},
      {"smiles": "CC1CCCN(CC(O)Cn2c3ccc(F)cc3c3cc(F)ccc32)C1=O", "note": "(centres unmarked) [Compound 27, 1-(3-(3,6-difluoro-9H-carbazol-9-yl)-2-hydroxypropyl)-3-methylpiperidin-2-one]", "EC50": 478},
      {"smiles": "CC1CCCN(CC(C)(O)Cn2c3ccc(F)cc3c3cc(F)ccc32)C1=O", "note": "(centres unmarked) [Compound 28, 1-(3-(3,6-difluoro-9H-carbazol-9-yl)-2-hydroxy-2-methylpropyl)-3-methylpiperidin-2-one]", "EC50": 824},
      {"smiles": "CC1CCN(CC(O)Cn2c3ccc(F)cc3c3cc(F)ccc32)C1=O", "note": "(centres unmarked) [Compound 29, 1-(3-(3,6-difluoro-9H-carbazol-9-yl)-2-hydroxypropyl)-3-methylpyrrolidin-2-one]", "EC50": 422},
      {"smiles": "CC1CCN(CC(C)(O)Cn2c3ccc(F)cc3c3cc(F)ccc32)C1=O", "note": "(centres unmarked) [Compound 30, 1-(3-(3,6-difluoro-9H-carbazol-9-yl)-2-hydroxy-2-methylpropyl)-3-methylpyrrolidin-2-one]", "EC50": 895},
      {"smiles": "CC1(C)CC(=O)N(CC(O)Cn2c3ccc(F)cc3c3cc(F)ccc32)C1", "note": "(centres unmarked) [Compound 31, 1-(3-(3,6-difluoro-9H-carbazol-9-yl)-2-hydroxypropyl)-4,4-dimethylpyrrolidin-2-one]", "EC50": 832},
      {"smiles": "CCC1CCC(=O)N1CC(O)Cn1c2ccc(F)cc2c2cc(F)ccc21", "note": "(centres unmarked) [Compound 32, 1-(3-(3,6-difluoro-9H-carbazol-9-yl)-2-hydroxypropyl)-5-ethylpyrrolidin-2-one]", "EC50": 539},
      {"smiles": "CCC1CCC(=O)N1CC(C)(O)Cn1c2ccc(F)cc2c2cc(F)ccc21", "note": "(centres unmarked) [Compound 33, 1-(3-(3,6-difluoro-9H-carbazol-9-yl)-2-hydroxy-2-methylpropyl)-5-ethylpyrrolidin-2-one]", "EC50": 625},
      {"smiles": "CC1CCC(=O)N1CC(O)Cn1c2ccc(F)cc2c2cc(F)ccc21", "note": "(centres unmarked) [Compound 34, 1-(3-(3,6-difluoro-9H-carbazol-9-yl)-2-hydroxypropyl)-5-methylpyrrolidin-2-one]", "EC50": 286},
      {"smiles": "CC1CCC(=O)N1CC(C)(O)Cn1c2ccc(F)cc2c2cc(F)ccc21", "note": "(centres unmarked) [Compound 35, 1-(3-(3,6-difluoro-9H-carbazol-9-yl)-2-hydroxy-2-methylpropyl)-5-methylpyrrolidin-2-one]", "EC50": 678},
      {"smiles": "CC1CCN(CC(C)(O)Cn2c3ccc(F)cc3c3cc(F)ccc32)C(=O)C1", "note": "(centres unmarked) [Compound 36, 1-(3-(3,6-difluoro-9H-carbazol-9-yl)-2-hydroxy-2-methylpropyl)-4-methylpiperidin-2-one]", "EC50": 760},
      {"smiles": "CC1CCC(=O)N(CC(O)Cn2c3ccc(F)cc3c3cc(F)ccc32)C1", "note": "(centres unmarked) [Compound 37, 1-(3-(3,6-difluoro-9H-carbazol-9-yl)-2-hydroxypropyl)-5-methylpiperidin-2-one]", "EC50": 224},
      {"smiles": "CC1CCC(=O)N(CC(C)(O)Cn2c3ccc(F)cc3c3cc(F)ccc32)C1", "note": "(centres unmarked) [Compound 38, 1-(3-(3,6-difluoro-9H-carbazol-9-yl)-2-hydroxy-2-methylpropyl)-5-methylpiperidin-2-one]", "EC50": 1220},
      {"smiles": "CC1CCCC(=O)N1CC(O)Cn1c2ccc(F)cc2c2cc(F)ccc21", "note": "(centres unmarked) [Compound 39, 1-(3-(3,6-difluoro-9H-carbazol-9-yl)-2-hydroxypropyl)-6-methylpiperidin-2-one]", "EC50": 342}
    ]}
  ]
}
